Experimental data: US20100197610A1, “FRUCTOSE 1, 6 BISPHOSPHATE - A NOVEL ANTICONVULSANT DRUG” (Baylor College of Medicine, priority 2007, published 2010)

What was measured:
[1] = test system: memory consolidation; conditions: subcutaneous 0.3 μmol, chick (Gibbs and Summers, 2002); cited from earlier work
[2] = test system: pilocarpine-induced seizures; experiment: Pilocarpine model of acute seizures; assay type: in vivo, Sprague Dawley rats
Experimental: (§1) All animal experiments were carried out in accordance with the National Institutes of Health guide for the care and use of laboratory animals (NIH publication 8023, revised 1996) and with the approval of the local Animal Use Committee. Unless indicated, all chemicals were obtained from Sigma Chemical Co (St. Louis Mo.). Male, Sprague Dawley rats weighing 50-74 g (young) or 147-309 g (adult) were used in this study. Acute seizures were induced by kainic acid (KA; Ocean Produce Int., Canada), pilocarpine or pentylenetetrazole (PTZ) as previously described (Lian et al 2006). These models were chosen because they initiate seizures by different mechanisms and the seizures have a relatively gradual onset compared to seizures initiated by stimulation. There was no difference in the body weight of the animals receiving the different convulsants. For pilocarpine, kainic acid and PTZ, the mean weights were 219±5 g (range 163-275 g), 215±7 g (range 183-258 g), and 216±13 g (range 147-309 g), respectively. The animals in the drug treatment groups were not different in weight from the animals in the control groups.
(§2) After administration of KA (10 mg/kg, ip), pilocarpine (scopolamine methyl bromide 1 mg/kg, s.c followed 15 min later by 300 mg/kg, ip pilocarpine) or PTZ (50 mg/kg, ip) (Lian et al., 2006), animals were continuously monitored for seizure activity for at least 5 h after KA or pilocarpine and for 30 min after PTZ. Behavioral seizures were scored by an investigator blinded to the treatment. Latency to the first wet dog shake after KA, latency to the first forelimb clonus (after pilocarpine, kainic acid or PTZ) and the score and duration of seizures were measured. When at least 1 hour had passed without any head bobbing (for pilocarpine) or any wet dog shakes (for KA), seizures were considered over. Status epilepticus lasting longer than 4 hours (for KA) or 5 hours (for pilocarpine) were assigned 4 and 5 hours for seizure duration. For animals receiving PTZ, the seizure duration was defined as the period of tonic-clonic seizures. EEG recording in the hippocampus was conducted as previously described (Lian et al., 2004). After anesthesia, a recording electrode was placed in a burr hole centered at 3.0 mm posterior to bregma, 1.8 mm lateral to the midline and then lowered 3.0 mm. A ground screw and wire was placed over the frontal region in another burr hole. This assembly was fixed to the skull with dental cement.
(§3) Each animal was assigned the score of the most severe seizure observed. The behavioral seizures induced by KA or pilocarpine were scored according to an adjusted version of the scale of Racine (Bough et al., 2002): stage 1, wet dog shakes after KA or trembling after pilocarpine; stage 2, head bobbing and stereotypes; stage 3, unilateral forelimb clonus; stage 4, bilateral forelimb clonus; stage 5, rearing and falling; stage 6, jumping and/or running followed by falling. Death within 24 h was assigned stage 7.
(§4) Adult rats received either D-F1,6BP, sodium valproate (VPA, 0.3 g/kg), 2-DG (0.25, 0.5 g/kg) or normal saline (vehicle) intraperitoneally followed 1 h later by one of the convulsants. The dose for VPA was based on experimental evidence that doses from 0.1 to 0.4 g/kg (ip) are effective in animal models (Bough and Eagles, 2001; Manent et al., 2007). Three doses of F1,6BP (0.25, 0.5 and 1 g/kg) were tested with this dosing schedule. Two additional groups were administered F1,6BP (0.5 or 1 g/kg, n=5) after pilocarpine. In this experiment, the F1,6BP was given intraperitoneally at the first behavioral seizure, which was chewing movements of the jaw. Two additional sets of animals were fed the classic ketogenic diet (No. F3666; Bio-Serv, Frenchtown, N.J.). One set of animals was given the diet beginning on postnatal day 22-26 (KD-Yng) and maintained on this diet for 4 weeks. Thus the seizures were tested in this group when the animals had reached approximately the same age (50-54 days) as the majority of the animals tested. […]

[3] = test system: kainic acid-induced seizures; experiment: Kainic acid model of acute seizures; assay type: in vivo, Sprague Dawley rats
Experimental: as §1, §2, §3, §4

[4] = test system: PTZ-induced generalized tonic-clonic seizures; experiment: PTZ model of acute seizures; assay type: in vivo, Sprague Dawley rats
Experimental: as §1, §2
Adult rats received either D-F1,6BP, sodium valproate (VPA, 0.3 g/kg), 2-DG (0.25, 0.5 g/kg) or normal saline (vehicle) intraperitoneally followed 1 h later by one of the convulsants. The dose for VPA was based on experimental evidence that doses from 0.1 to 0.4 g/kg (ip) are effective in animal models (Bough and Eagles, 2001; Manent et al., 2007). Three doses of F1,6BP (0.25, 0.5 and 1 g/kg) were tested with this dosing schedule. Two additional groups were administered F1,6BP (0.5 or 1 g/kg, n=5) after pilocarpine. In this experiment, the F1,6BP was given intraperitoneally at the first behavioral seizure, which was chewing movements of the jaw. Two additional sets of animals were fed the classic ketogenic diet (No. F3666; Bio-Serv, Frenchtown, N.J.). One set of animals was given the diet beginning on postnatal day 22-26 (KD-Yng) and maintained on this diet for 4 weeks. Thus the seizures were tested in this group when the animals had reached approximately the same age (50-54 days) as the majority of the animals tested.
The latency to seizure onset, seizure score and seizure duration were averaged across animals in each group. Comparisons between groups were done with an analysis of variance with Bonferroni post hoc test. Statistical difference was defined as p<0.05.

[5] = 2-DG 0.25 and 0.5 g/kg, n=5 each
[6] = VPA 0.3 g/kg ip pretreatment, n=9

For O=CC[C@@H](O)[C@H](O)[C@H](O)CO [2-DG, 2-deoxyglucose, reference compound], the “effect on memory consolidation” value [1] is listed as “inhibit memory consolidation”, the “animals with a stage 3 seizure” value ([2]; 2-DG 0.25 g/kg, n=6) is listed as “only one animal” and the seizure duration ([2]; pretreatment with 2-DG) is listed as “decreasing”. The seizure score ([2]; pretreatment with 2-DG) was “decreasing”, the “appearance of the first wet dog shake” value ([3]; 2-DG 0.25 g/kg, n=6) was “delayed” and the “effect on the other seizure parameters” value ([3]; 2-DG 0.25 g/kg, n=6) was “no effect”. For the same compound, the anticonvulsant activity ([3]; 2-DG 0.5 g/kg, n=3) was “no additional activity”, the “animals that had seizures” value [4, 5] was “All animals” and the seizure latency [4, 5] was “not increased”. The seizure duration ([4]; 2-DG 0.25 g/kg) was “significantly shortened”.

In the case of CCCC(CCC)C(=O)[O-].[Na+] [VPA, sodium valproate, reference compound], the “animals with forelimb clonus” value ([2]; VPA 0.3 g/kg ip pretreatment) is reported as 6 out of 9, the animals that died [2, 6] is reported as “one died” and the mean seizure score [2, 6] is reported as “significantly reduced”. For the same compound, the seizure duration [2, 6] was “significantly reduced”, the “appearance of forelimb clonus” value ([3]; VPA 0.3 g/kg ip, n=6) was “but not the appearance of forelimb clonus” and the “appearance of wet dog shakes” value ([3]; VPA 0.3 g/kg ip, n=6) was “significantly delayed”. The duration of seizures ([3]; VPA 0.3 g/kg ip, n=6) was “decreased”, the seizure score ([3]; VPA 0.3 g/kg ip, n=6) was 4.5±0.2 and the seizure duration ([4]; VPA 0.3 g/kg) was 9 ± 4 s. For the same compound, the “animals with no generalized tonic-clonic seizures” value ([4]; VPA 0.3 g/kg, n=8) was “two animals” and the seizure latency ([4]; VPA 0.3 g/kg, the six animals with seizures) was 185 ± 27 s.
